The text below walks through data of PubChem BioAssay AID1845215 (Molecular Pharmacology Branch, DTP, NCI, 2023).

The term viability, T/C denotes the ratio of treated to control. As a reminder, the IC50 is the midpoint of a concentration-inhibition curve.

The subject of the assay is SW 1271 complex tumor spheroid viability. The assay can be described thus: Anticancer human tumor SW 1271 cell line growth inhibition.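 As to IC50: spheroids exposed to agents for seven days before readout.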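 As to viability, T/C: spheroids exposed to agents for seven days before readout; percent of DMSO vehicle control luminescence so 100% = vehicle.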 The conditions noted are these: for viability, T/C: stronger effect = lower value. From the text: Multicellular complex tumor spheroid response to DNA repair inhibitors in combination with DNA-damaging drugs
This study explores the anticancer activities of DNA-damaging drugs and inhibitors of DNA damage repair, both as single agents and in combinations. Complex tumor spheroids comprised of malignant cells, endothelial cells and mesenchymal stem cells served as an in vitro model for human solid tumors. This model system incorporates physiologically relevant features and patient-derived or established malignant cell lines with clinically relevant genetic alterations from many tumor types. Twenty-six patient-derived or established malignant cell lines were evaluated representing sarcoma, melanoma, small cell lung cancer (SCLC), non-small cell lung cancer (NSCLC), as well as bladder, ovarian and pancreatic cancers. The concentration ranges selected for each drug and investigational agent were based upon clinically achievable concentrations if the clinical Cmax of the agent was known.
Compounds. The drugs and compounds olaparib (NSC753686), talazoparib (NSC767125), berzosertib (NSC777718), elimusertib (NSC800525), nedisertib (NSC802822), VX-984 (NSC792969), AZD-1390 (NSC803789), temozolomide (NSC362856), topotecan (NSC609699), trabectedin (NSC813783), staurosporine (NSC755774), and gemcitabine (NSC613327) were obtained from the National Cancer Institute (NCI) Developmental Therapeutics Program Chemical Repository. The FDA-approved anticancer drug set is available from the Developmental Therapeutics Program at https://dtp.cancer.gov/organization/dscb/obtaining/available_plates.htm. […] The stock solutions were prepared in dimethyl sulfoxide (DMSO, Sigma-Aldrich, St. Louis, MO, cat. D2650) at 400-fold the tested concentration and stored at -70 degrees C. Prior to their use, the stock solutions were diluted in fresh medium and the final DMSO concentration in the assay was 0.25% (v/v). All drugs and investigational agents were tested over a range starting from a high concentration at or near the clinical Cmax and decreasing in half-log increments. If the clinical Cmax for an agent had not been determined, the highest concentration tested was 10 microM.
Cell Lines. The patient-derived cancer cell (PDC) lines: 156681-154-R-J1-PDC, 283228-195-R-J1-PDC, 287954-098-R-J1-PDC, 292921-168-R-J2-PDC, 349418-098-R-PDC, 425362-245-T-J1-PDC, 556581-035-R-J1-PDC, and BL0293-F563-PDC were received from the NCI Patient-Derived Models Repository (PDMR, https://pdmr.cancer.gov). The established cell lines HS-SY-2 (RRID:CVCL_8719), MPNST, and SYO-1 (RRID:CVCL_7146) were obtained from the Sloan Kettering Institute. The alveolar soft parts sarcoma cell line ASPS-1 (RRID:CVCL_S738) was established at the NCI and grown from internal seed stocks. The following established cell lines were purchased from the American Type Culture Collection (ATCC, Manassas, VA): G-401 (ATCC, cat. CRL-1441, RRID:CVCL_0270), SW982 (ATCC, cat. HTB-93, RRID:CVCL_1734), VA-ES-BJ (ATCC, cat. CRL-2138, RRID:CVCL_1785), NCI-H719 (ATCC, cat. CRL-5837, RRID:CVCL_1582), NCI-H196 (ATCC, cat. CRL-5823, RRID:CVCL_1509), NCI-H841 (ATCC, cat. CRL-5845, RRID:CVCL_1595), NCI-H1618 (ATCC, cat. CRL-5879, RRID:CVCL_1480), NCI-H1876 (ATCC, cat. CRL-5902, RRID:CVCL_1503), DMS 114 (ATCC, cat. CRL-2066; RRID:CVCL_1174), NCI-H211 (ATCC, cat. CRL-5824; RRID:CVCL_1529), and SW 1271 (ATCC, cat. CRL-2177, RRID:CVCL_1716). The small cell lung cancer cell line COR-L88 was purchased from Sigma-Aldrich (cat. 92031917-1VL, RRID:CVCL_1141). The non-small cell lung cancer cell lines NCI-H226 (RRID:CVCL_1544) and NCI-H322M (RRID:CVCL_1557) were established at the NCI and grown from internal seed stocks. Pooled donor human umbilical vein endothelial cells (HUVEC, Lonza, cat. CC-2519) and human mesenchymal stem cells (hMSC, Lonza, cat. PT-2501) were purchased from Lonza (Walkersville, MD).
Cell Culture. All cells were maintained in an incubator at 37 degrees C and 5% CO2 with 95% humidity. […]

Where [1] appears, read: compound alone, run of 11/07/2019.
Setting [2] is: compound alone, run of 12/16/2019.

Where “and” joins values, the source holds several entries; their conditions need not be identical. Equal entries are not always repeated. Calls of active or inactive are those of the source. The calls were made as follows: active = viability on the fitted dose curve at most 10% of control; inactive = the rest. Where only a bound is given, the exact number is not on record here.

With `CC(C)n1c(=O)n(C)c2cnc3cc(F)c(-c4ccc(OCCCN5CCCCC5)nc4)cc3c21`, the viability, T/C is 94.1% and 98.9% and 79.6% (compound 0.0316 µM); 86.3% and 78.7% (compound 0.1 µM); 92.8% and 94.3% and 72.7% (compound 0.316 µM); 94.6% and 83.5% and 71.3% (compound 1 µM); 86.3% and 70.8% and 59.2% (compound 3.16 µM); 60.3% and 48.2% and 20.9% (compound 10 µM). Further, the outcome (compound 0.1 µM) was inactive. In addition, the IC50 (curve of compound) was > 10000 nM and 9160 nM and 4080 nM.

Turning to `CC1COCCN1c1cc(-c2ccnn2C)c2ccnc(-c3ccn[nH]3)c2n1` (configuration not stated), the viability, T/C by setting is: (compound 0.0316 µM) 76.6% and 87.1% and 78.6%; (compound 0.1 µM) 50.5% and 44.6% and 58.8%; (compound 0.316 µM) 25.2% and 31.1% and 21.6%; (compound 1 µM) 4.08% and 5.26% and 4.1%; (compound 3.16 µM) 2.44% and 3.8% and 2.04%; (compound 10 µM) 2.18% and 3.01% and 1.85%. Further, the IC50 (curve of compound) is 107 nM and 93.4 nM and 131 nM.

Take `CC[C@@]1(O)C(=O)OCc2c1cc1n(c2=O)Cc2cc3c(CN(C)C)c(O)ccc3nc2-1`: the viability, T/C runs as follows: (compound 0.003 µM) 88.3% [middle of 10 runs]; (compound 0.03 µM) 28.2% [middle of 10 runs]; (compound 0.0949 µM) 27.2% [middle of 10 runs]; (compound 0.3 µM) 16.7% [middle of 10 runs]. The half-inhibitory concentration (IC50) is 8.96 nM [middle of 5 runs] under setting [1] and 11.7 nM [middle of 5 runs] under setting [2].

For `CNCc1ccc(-c2cc(-c3nc(-c4ccc(S(=O)(=O)C(C)C)cc4)cnc3N)on2)cc1`, the viability, T/C is 105% and 99.4% and 104% (compound 0.00949 µM); 103% and 101% and 109% (compound 0.03 µM); 92% and 70.1% and 88.4% (compound 0.0949 µM); 26.4% and 24.2% and 45.3% (compound 0.3 µM); 6.64% and 6.62% and 10.9% (compound 0.949 µM); 0.13% and 0.12% and 0.2% (compound 3 µM). For the same compound, for the setting “curve of compound”, the IC50 is 199 nM and 159 nM and 266 nM.

On to `COc1cc(C)[nH]c(=O)c1CN1CCc2c(Cl)cc(C(OC)C3COC3)c(Cl)c2C1=O` (configuration not stated), for which the viability, T/C is, setting by setting: (compound 0.0316 µM) 98.5% and 98.1% and 104%; (compound 0.1 µM) 101% and 92.7% and 98.5%; (compound 0.316 µM) 102% and 86.8% and 91.5%; (compound 1 µM) 105% and 89.8% and 94.6%; (compound 3.16 µM) 94.8% and 79.1% and 95.3%; (compound 10 µM) 84% and 75.4% and 81.9%. Besides, under “curve of compound”, the IC50 was more than 10000 nM.

`COc1cc2c(cc1O)CCNC21CSC2c3c(OC(C)=O)c(C)c4c(c3C(COC1=O)N1C(O)C3Cc5cc(C)c(OC)c(O)c5C(C21)N3C)OCO4` (configuration not stated): the viability, T/C (compound 30 pM) is 89.8% [middle of 10 runs]; the viability, T/C (compound 94.9 pM) was 64.2% [middle of 10 runs]; the viability, T/C (compound 0.0003 µM) is 34.4% [middle of 10 runs]; the viability, T/C (compound 0.000949 µM) was 3.63% [middle of 10 runs]; the viability, T/C (compound 0.003 µM) was 0.11% [middle of 6 runs]. The IC50 under setting [2] was 0.156 nM [middle of 10 runs].

Turning to `COc1ccc([C@@H](O)c2cc(-c3ncnc4cc(N5CCOCC5)ccc34)c(F)cc2Cl)nn1`, the viability, T/C was 92.9% and 91.6% and 101% (compound 0.0316 µM); 93.1% and 83% and 92.6% (compound 0.1 µM); 92.8% and 78.7% and 83.9% (compound 0.316 µM); 77.2% and 72.9% (compound 1 µM); 44.9% and 38.3% and 44% (compound 3.16 µM); 8.13% and 13.3% and 6.11% (compound 10 µM). The outcome (compound 1 µM) was inactive. In addition, the IC50 (curve of compound) is 2630 nM and 1790 nM and 2520 nM.

Take `Cc1cc(C)c(CNC(=O)c2cc(-c3ccc(CN4CCOCC4)cc3)cc3c2cnn3C2CCCC2)c(=O)[nH]1`: the viability, T/C was 99.2% and 98.8% and 97.6% (compound 0.0316 µM); 95.9% and 99.6% and 92.9% (compound 0.1 µM); 96.5% and 95.6% and 98.5% (compound 0.316 µM); 94.5% and 91.5% and 91.4% (compound 1 µM); 98.9% and 85.2% and 85.7% (compound 3.16 µM); 85.4% and 73% and 66.3% (compound 10 µM). The IC50 (curve of compound) is more than 10000 nM.

Take `Cc1sc2c(c1C)C(c1ccc(Cl)cc1)=NC(CC(=O)Nc1ccc(O)cc1)c1nnc(C)n1-2` (configuration not stated): the viability, T/C (compound 0.00949 µM) is 112% and 133% and 111%; the viability, T/C (compound 0.03 µM) is 98.6% and 108% and 112%; the viability, T/C (compound 0.0949 µM) was 38.7% and 40.3% and 67.7%; the viability, T/C (compound 0.3 µM) is 4.84% and 5.32% and 10.5%; the viability, T/C (compound 0.949 µM) was 1.98% and 1.57% and 1.36%; the viability, T/C (compound 3 µM) is 1.53% and 0.84% and 1.11%. Further, the IC50 (curve of compound) was 76.2 nM and 80.2 nM and 136 nM.

In the case of `Cn1ncnc1[C@H]1c2n[nH]c(=O)c3cc(F)cc(c23)N[C@@H]1c1ccc(F)cc1`, the viability, T/C runs as follows: (compound 0.00949 µM) 39.3% and 40% and 67.2%; (compound 0.03 µM) 31.9% and 32.7% and 44.5%; (compound 0.0949 µM) 21.2% and 24.7% and 35.2%; (compound 0.3 µM) 24.9% and 26.4% and 34.4%; (compound 0.949 µM) 25.2% and 26.3% and 30.4%; (compound 3 µM) 21.1% and 25.1% and 26.3%. For the setting “curve of compound”, the IC50 was < 9.49 nM and 23.5 nM.

With `Cn1nnc2c(C(N)=O)ncn2c1=O`, the viability, T/C is, setting by setting: (compound 1 µM) 97% [middle of 10 runs]; (compound 3.16 µM) 103% [middle of 10 runs]. For the same compound, the IC50 under setting [1] was > 100000 nM and 20700 nM.

`O=C(c1cc(Cc2n[nH]c(=O)c3ccccc23)ccc1F)N1CCN(C(=O)C2CC2)CC1`: the viability, T/C reads like this: (compound 0.0949 µM) 91.1% and 93% and 93.6%; (compound 0.3 µM) 77.1% and 81.2% and 80.7%; (compound 0.949 µM) 77% and 74.6% and 75.7%; (compound 3 µM) 41% and 45.6% and 42.4%; (compound 9.49 µM) 29.3% and 28.4% and 28.2%; (compound 30 µM) 24.2% (2×) and 16.6%. Moreover, the IC50 (curve of compound) was 2270 nM and 2550 nM and 2470 nM.

As for `[2H]c1nc(C)nc([2H])c1-c1cc(NC[C@@H](C)c2cccc3c(C(=O)NC)ccnc23)ncn1`, the viability, T/C is, setting by setting: (compound 0.0316 µM) 96.9% and 105% and 108%; (compound 0.1 µM) 98.7% and 104% and 106%; (compound 0.316 µM) 101% and 95.6% and 96.8%; (compound 1 µM) 104% (2×) and 99.2%; (compound 3.16 µM) 98% and 96.2% and 104%; (compound 10 µM) 90.8% and 102% and 96.7%. Moreover, under “curve of compound”, the IC50 is more than 10000 nM.
